# Laboratory results as given in US10770169B2, “Method of providing a treatment to a subject based on a dynamic pathway map” (THE REGENTS OF THE UNIVERSITY OF CALIFORNIA, priority 2010, dated 2020).
# What was measured:
# [1] = system: panel of 55 breast cancer cell lines; experiment: Cell growth inhibition assay (Cell Titer Glo, 72 h, 9 doses; GI50, TGI, LC50); assay type: cell-based, human; conditions: value is the negative log10 of mol/L
# [2] = system: luminal, basal, claudin-low and ERBB2AMP breast cancer cell lines; experiment: Associations of clinically relevant subtypes and response (non-parametric ANOVA or t-test on GI50 ranks); assay type: cell-based, human; conditions: Table 6; most sensitive subtype, FDR p<0.20
# Procedure, shortened: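 GI50 values were compared between cell-line subtype groups by non-parametric ANOVA or t-test on ranks. P-values from three test sets were combined and FDR-corrected. Significant three-group effects were followed by post-hoc comparison of each group against all others, and FDR p<0.20 counted as significant.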
smiles,measurement,setting,value
C=CCNC1=C2C[C@@H](C)C[C@H](OC)[C@H](O)[C@@H](C)/C=C(\C)[C@H](OC(N)=O)[C@@H](OC)/C=C\C=C(/C)C(=O)NC(=CC1=O)C2=O [17-AAG],GI50,"[1]; 600MPE cell line, censored GI50 values",6.87
same,GI50,"[1]; AU565 cell line, censored GI50 values",7.25
same,GI50,"[1]; BT474 cell line, censored GI50 values",7.69
same,GI50,"[1]; BT483 cell line, censored GI50 values",6.65
same,GI50,"[1]; BT549 cell line, censored GI50 values",7.47
same,GI50,"[1]; CAMA1 cell line, censored GI50 values",6.57
same,GI50,"[1]; HCC38 cell line, censored GI50 values",7.23
same,GI50,"[1]; HCC70 cell line, censored GI50 values",6.62
same,GI50,"[1]; HCC202 cell line, censored GI50 values",8.39
same,GI50,"[1]; HCC1143 cell line, censored GI50 values",6.86
same,GI50,"[1]; HCC1187 cell line, censored GI50 values",5.29
same,GI50,"[1]; HCC1395 cell line, censored GI50 values",6.54
same,GI50,"[1]; HCC1419 cell line, censored GI50 values",7.35
same,GI50,"[1]; HCC1428 cell line, censored GI50 values",7.70
same,GI50,"[1]; HCC1500 cell line, censored GI50 values",6.91
same,GI50,"[1]; HCC1806 cell line, censored GI50 values",7.04
same,GI50,"[1]; HCC1937 cell line, censored GI50 values",6.87
same,GI50,"[1]; HCC1954 cell line, censored GI50 values",7.49
same,GI50,"[1]; HCC2185 cell line, censored GI50 values",6.93
same,GI50,"[1]; HCC3153 cell line, censored GI50 values",6.81
same,GI50,"[1]; LY2 cell line, censored GI50 values",6.97
same,GI50,"[1]; MCF7 cell line, censored GI50 values",6.25
same,GI50,"[1]; MDAMB134VI cell line, censored GI50 values",7.46
same,GI50,"[1]; MDAMB175VII cell line, censored GI50 values",7.54
same,GI50,"[1]; MDAMB231 cell line, censored GI50 values",6.11
same,GI50,"[1]; MDAMB361 cell line, censored GI50 values",7.24
same,GI50,"[1]; MDAMB415 cell line, censored GI50 values",7.30
same,GI50,"[1]; MDAMB436 cell line, censored GI50 values",5.96
same,GI50,"[1]; MDAMB453 cell line, censored GI50 values",7.14
same,GI50,"[1]; MDAMB468 cell line, censored GI50 values",5.62
same,GI50,"[1]; SKBR3 cell line, censored GI50 values",7.50
same,GI50,"[1]; SUM44PE cell line, censored GI50 values",8.84
same,GI50,"[1]; SUM52PE cell line, censored GI50 values",7.46
same,GI50,"[1]; SUM149PT cell line, censored GI50 values",7.00
same,GI50,"[1]; SUM159PT cell line, censored GI50 values",7.46
same,GI50,"[1]; SUM185PE cell line, censored GI50 values",7.46
same,GI50,"[1]; SUM1315MO2 cell line, censored GI50 values",7.66
same,GI50,"[1]; UACC893 cell line, censored GI50 values",7.90
same,GI50,"[1]; ZR75B cell line, censored GI50 values",7.14
same,GI50,"[1]; ZR751 cell line, censored GI50 values",6.56
same,GI50,[1]; cell line 600MPE,6.87
same,GI50,[1]; cell line AU565,7.25
same,GI50,[1]; cell line BT474,7.69
same,GI50,[1]; cell line BT483,6.65
same,GI50,[1]; cell line BT549,7.47
same,GI50,[1]; cell line CAMA1,6.57
same,GI50,[1]; cell line HCC38,7.23
same,GI50,[1]; cell line HCC70,6.62
same,GI50,[1]; cell line HCC202,8.39
same,GI50,[1]; cell line HCC1143,6.86
same,GI50,[1]; cell line HCC1187,5.29
same,GI50,[1]; cell line HCC1395,6.54
same,GI50,[1]; cell line HCC1419,7.35
same,GI50,[1]; cell line HCC1428,7.70
same,GI50,[1]; cell line HCC1500,6.91
same,GI50,[1]; cell line HCC1806,7.04
same,GI50,[1]; cell line HCC1937,6.87
same,GI50,[1]; cell line HCC1954,7.49
same,GI50,[1]; cell line HCC2185,6.93
same,GI50,[1]; cell line HCC3153,6.81
same,GI50,[1]; cell line LY2,6.97
same,GI50,[1]; cell line MCF7,6.25
same,GI50,[1]; cell line MDAMB134V,7.46
same,GI50,[1]; cell line MDAMB175V,7.54
same,GI50,[1]; cell line MDAMB231,6.11
same,GI50,[1]; cell line MDAMB361,7.24
same,GI50,[1]; cell line MDAMB415,7.30
same,GI50,[1]; cell line MDAMB436,5.96
same,GI50,[1]; cell line MDAMB453,7.14
same,GI50,[1]; cell line MDAMB468,5.62
same,GI50,[1]; cell line SKBR3,7.50
same,GI50,[1]; cell line SUM44PE,8.84
same,GI50,[1]; cell line SUM52PE,7.46
same,GI50,[1]; cell line SUM149PT,7.00
same,GI50,[1]; cell line SUM159PT,7.46
same,GI50,[1]; cell line SUM185PE,7.46
same,GI50,[1]; cell line SUM1315MO,7.66
same,GI50,[1]; cell line UACC893,7.90
same,GI50,[1]; cell line ZR75B,7.14
same,GI50,[1]; cell line ZR751,6.56
same,Subtype specificity,[2],Luminal/ERBB2AMP
